For one experiment, the target named is T1, TBK1 (Homo sapiens, UniProt Q9UHD2).
T1 sequence (Q9UHD2 1-729): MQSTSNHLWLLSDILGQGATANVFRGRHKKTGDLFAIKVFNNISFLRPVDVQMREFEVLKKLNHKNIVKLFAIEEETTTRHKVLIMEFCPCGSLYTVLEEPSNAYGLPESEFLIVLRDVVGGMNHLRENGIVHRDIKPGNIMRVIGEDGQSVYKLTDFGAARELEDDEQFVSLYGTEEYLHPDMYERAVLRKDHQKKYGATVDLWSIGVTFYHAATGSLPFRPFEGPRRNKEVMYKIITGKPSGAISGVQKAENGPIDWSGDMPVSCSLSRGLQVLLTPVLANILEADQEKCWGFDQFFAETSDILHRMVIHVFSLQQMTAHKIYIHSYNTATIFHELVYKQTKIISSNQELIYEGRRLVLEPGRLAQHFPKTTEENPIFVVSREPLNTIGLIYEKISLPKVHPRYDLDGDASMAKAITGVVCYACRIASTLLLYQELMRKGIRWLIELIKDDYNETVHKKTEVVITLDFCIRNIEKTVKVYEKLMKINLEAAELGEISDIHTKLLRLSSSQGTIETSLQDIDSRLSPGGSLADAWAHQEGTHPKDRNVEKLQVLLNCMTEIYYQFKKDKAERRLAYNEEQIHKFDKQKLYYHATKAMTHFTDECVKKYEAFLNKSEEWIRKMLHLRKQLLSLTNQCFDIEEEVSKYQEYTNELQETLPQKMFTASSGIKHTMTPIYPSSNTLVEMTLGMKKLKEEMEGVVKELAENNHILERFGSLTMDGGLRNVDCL
The experiment can be described thus: TBK Biochemical Assay. To be noted: read-out: TBK1 IC50. In outline: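 Caliper LabChip mobility-shift readout of substrate and product after 90 min of TBK1 reaction at 25° C and stop-buffer addition. Compounds tested in 1:4 serial dilution over 10 points from 30 uM final at 1% DMSO; staurosporine 10 uM final defines full inhibition.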

Experiment [1] concerns phosphorylation of the IRF-3 protein in MDA-MB-468 cells. Description: pIRF3 immunocytochemistry cell based assay. To be noted: Homo sapiens. The method in brief:
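After 2 h stimulation with Poly(I:C) (10 ug/ml), following 1 h compound pre-treatment (10-point, 3-fold dilution, top 10 uM), MDA-MB-468 cells were fixed and stained with anti-pIRF3 antibody. pIRF3 fluorescence was normalized to PI staining or cell count on an Acumen cytometer. IC50 curves were derived from this.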

The target of the next experiment is T2, IKKε (Homo sapiens, UniProt Q14164).
T2 sequence (Q14164 1-716): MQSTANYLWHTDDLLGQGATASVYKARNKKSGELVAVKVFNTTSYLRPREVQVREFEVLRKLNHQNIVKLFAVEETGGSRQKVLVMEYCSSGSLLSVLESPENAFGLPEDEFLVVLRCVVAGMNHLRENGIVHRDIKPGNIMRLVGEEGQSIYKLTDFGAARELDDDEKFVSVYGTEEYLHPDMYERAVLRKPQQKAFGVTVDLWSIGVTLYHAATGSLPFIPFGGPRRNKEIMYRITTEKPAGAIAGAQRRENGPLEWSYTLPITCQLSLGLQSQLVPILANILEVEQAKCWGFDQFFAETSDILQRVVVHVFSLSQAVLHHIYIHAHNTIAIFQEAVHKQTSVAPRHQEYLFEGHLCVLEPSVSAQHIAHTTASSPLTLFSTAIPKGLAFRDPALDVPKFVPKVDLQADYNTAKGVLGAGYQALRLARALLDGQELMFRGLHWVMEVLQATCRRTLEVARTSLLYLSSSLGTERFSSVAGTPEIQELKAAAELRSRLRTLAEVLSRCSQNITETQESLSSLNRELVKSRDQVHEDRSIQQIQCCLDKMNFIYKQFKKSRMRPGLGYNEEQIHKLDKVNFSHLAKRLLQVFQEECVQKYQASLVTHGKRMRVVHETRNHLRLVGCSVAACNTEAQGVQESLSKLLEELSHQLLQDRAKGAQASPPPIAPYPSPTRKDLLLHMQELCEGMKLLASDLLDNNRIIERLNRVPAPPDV
The experiment can be described thus: IKKe Biochemical Assay. To be noted: read-out: IKKε IC50. The method in brief: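 Activity was measured as mobility-shift separation of phosphorylated from unphosphorylated substrate on a LabChip EZ Reader. Compound was titrated from 30 uM final in 10 points, 1:4 steps, with 1% DMSO, and enzyme plus substrate reacted 90 min at 25° C before stop buffer. Control wells held 10 uM staurosporine.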

Setting [2] is: MDA-MB-468 cells, Poly(I:C) stimulation, read-out: pIRF3 IC50.
[3] abbreviates: MDA-MB-468, read-out: pIRF3 IC50.

Structures are written as SMILES. Counter-ions that a name gives are not always drawn. Like-named read-outs stand apart in the source and are kept apart here. Some results are limits rather than exact numbers.

The term IC50 denotes the concentration that inhibits the measured activity by half. As for `COc1cc(C(=O)NC2CCC(=O)NC2C)ccc1-c1cc2nccc(-c3ccc(OC4CCOCC4)c(C#N)c3)c2o1` (stereo not drawn) [Compound 369, 4-[7-[3-cyano-4-(oxan-4-yloxy)phenyl]furo[3,2-b]pyridin-2-yl]-3-methoxy-N-(2-methyl-6-oxopiperidin-3-yl)benzamide], the IC50 at TBK1 was less than 100 nM; in experiment [1] (setting [2]), 100 to 1000 nM; at IKKε, less than 100 nM.

With `COc1cc(C(=O)NC2(C)CCN(C)CC2)ccc1-c1cc2nccc(-c3ccc(OC4CCOCC4)c(C#N)c3)c2o1` [Compound 370, 4-[7-[3-cyano-4-(oxan-4-yloxy)phenyl]furo[3,2-b]pyridin-2-yl]-N-(1,4-dimethylpiperidin-4-yl)-3-methoxybenzamide hydrochloride], the half-maximal inhibitory concentration (IC50) was less than 100 nM at TBK1, 100 to 1000 nM in experiment [1] (setting [2]) and less than 100 nM at IKKε.

Take `COc1cc(C(=O)NC2CC(N3CCCC3)C2)ccc1-c1cc2nccc(-c3ccc(OC4CCOCC4)c(C#N)c3)c2o1` (stereo not drawn) [Compound 371, 4-(7-(3-cyano-4-(tetrahydro-2H-pyran-4-yloxy)phenyl)furo[3,2-b]pyridin-2-yl)-3-methoxy-N-(3-(pyrrolidin-1-yl)cyclobutyl)benzamide]: the figures for the IC50 (on TBK1; in experiment [1] (setting [3]); at IKKε) were less than 100 nM, 100 to 1000 nM and less than 100 nM, respectively.

Consider `COc1cc(C(=O)N[C@@]23C[C@@H]2CN(C(C)C)C3)ccc1-c1cc2nccc(-c3ccc(OC4CCOCC4)c(C#N)c3)c2o1` [Compound 372, 4-[7-[3-cyano-4-(oxan-4-yloxy)phenyl]furo[3,2-b]pyridin-2-yl]-3-methoxy-N-[(1S,5R)-3-(propan-2-yl)-3-azabicyclo[3.1.0]hexan-1-yl]benzamide], for which the IC50 on TBK1 was less than 100 nM; in experiment [1] (setting [3]), 100 to 1000 nM; on IKKε, less than 100 nM.

Consider `COc1cc(C(=O)N[C@@H]2CC[C@@H]3CN(C)C[C@@H]32)ccc1-c1cc2nccc(-c3ccc(OC4CCOCC4)c(C#N)c3)c2o1` [Compound 373, N-[(3aR,4R,6aS)-2-methyl-octahydrocyclopenta[c]pyrrol-4-yl]-4-[7-[3-cyano-4-(oxan-4-yloxy)phenyl]furo[3,2-b]pyridin-2-yl]-3-methoxybenzamide], for which the IC50 (at TBK1; in experiment [1] (setting [2]); on IKKε) was less than 100 nM in each case.

In the case of `COc1cc(C(=O)N(C)CCO)ncc1-c1cc2nccc(-c3ccc(OC4CCOCC4)c(C#N)n3)c2o1` [Compound 376, 5-[7-[6-cyano-5-(oxan-4-yloxy)pyridin-2-yl]furo[3,2-b]pyridin-2-yl]-N-(2-hydroxyethyl)-4-methoxy-N-methylpyridine-2-carboxamide], the 50% inhibitory concentration (IC50) (at TBK1; in experiment [1] (setting [2]); on IKKε) was less than 100 nM each time.

Take `COc1cc(C(=O)N(C)CCO)ncc1-c1cc2nccc(-c3ccc(N4CC[C@H](F)C4)c(C#N)c3)c2o1` [Compound 379, 5-{7-[3-Cyano-4-((S)-3-fluoro-pyrrolidin-1-yl)-phenyl]-furo[3,2-b]pyridin-2-yl}-4-methoxy-pyridine-2-carboxylic acid (2-hydroxy-ethyl)-methyl-amide]: the 50% inhibitory concentration (IC50) (on TBK1; in experiment [1] (setting [2]); on IKKε) was less than 100 nM in each case.

As for `COc1cc(C(=O)N(C)CCO)ncc1-c1cc2nccc(-c3ccc(N4CC[C@@H](F)C4)c(C#N)c3)c2o1` [Compound 380, 5-{7-[3-Cyano-4-((R)-3-fluoro-pyrrolidin-1-yl)-phenyl]-furo[3,2-b]pyridin-2-yl}-4-methoxy-pyridine-2-carboxylic acid (2-hydroxy-ethyl)-methyl-amide], the IC50 (at TBK1; in experiment [1] (setting [2]); on IKKε) was less than 100 nM in each case.

`COc1cc(C(=O)N(C)C)ncc1-c1cc2nccc(-c3ccc(OC4CCOCC4)c(C#N)n3)c2o1` [Compound 387, 5-[7-[6-cyano-5-(oxan-4-yloxy)pyridin-2-yl]furo[3,2-b]pyridin-2-yl]-4-methoxy-N,N-dimethylpyridine-2-carboxamide hydrochloride]: the concentration for half-maximal inhibition (IC50) is less than 100 nM at TBK1, 100 to 1000 nM in experiment [1] (setting [2]) and less than 100 nM on IKKε.

For the molecule `COc1cc(C(=O)N(C)C)ncc1-c1cc2nccc(-c3cnc(OC4CCOCC4)c(C#N)c3)c2o1` [Compound 388, 5-[7-[5-cyano-6-(oxan-4-yloxy)pyridin-3-yl]furo[3,2-b]pyridin-2-yl]-4-methoxy-N,N-dimethylpyridine-2-carboxamide], the values for the half-inhibitory concentration (IC50) (at TBK1; in experiment [1] (setting [2]); on IKKε) were less than 100 nM, 100 to 1000 nM and less than 100 nM, respectively.

Regarding `COc1cc(-c2cc3nccc(-c4ccc(OC5CCOCC5)c(C#N)c4)c3o2)ncc1C(=O)N(C)C` [Compound 391, 6-[7-[3-cyano-4-(oxan-4-yloxy)phenyl]furo[3,2-b]pyridin-2-yl]-4-methoxy-N,N-dimethylpyridine-3-carboxamide], the 50% inhibitory concentration (IC50) on TBK1 is 100 to 1000 nM; in experiment [1] (setting [3]) it was 1000 to 5000 nM; at IKKε, less than 100 nM.

With `COc1cc(-c2cc3nccc(-c4ccc(OC5CCOCC5)c(C#N)c4)c3o2)cnc1C(=O)N(C)C` [Compound 393, 5-[7-[3-cyano-4-(oxan-4-yloxy)phenyl]furo[3,2-b]pyridin-2-yl]-3-methoxy-N,N-dimethylpyridine-2-carboxamide], the IC50 was 100 to 1000 nM on TBK1, 1000 to 5000 nM in experiment [1] (setting [2]) and less than 100 nM on IKKε.

As for `COc1cc(-c2cc3nccc(-c4ccc(NC5CCOCC5)c(C#N)c4)c3o2)cnc1C(=O)N(C)C` [Compound 394, 5-(7-[3-cyano-4-[(oxan-4-yl)amino]phenyl]furo[3,2-b]pyridin-2-yl)-3-methoxy-N,N-dimethylpyridine-2-carboxamide], the results for the IC50 (on TBK1; in experiment [1] (setting [2]); on IKKε) were 100 to 1000 nM, 1000 to 5000 nM and 100 to 1000 nM, respectively.

As for `COc1cc(C(=O)N(C)C)nnc1-c1cc2nccc(-c3ccc(OC4CCOCC4)c(C#N)c3)c2o1` [Compound 395, 6-[7-[3-cyano-4-(oxan-4-yloxy)phenyl]furo[3,2-b]pyridin-2-yl]-5-methoxy-N,N-dimethylpyridazine-3-carboxamide], the IC50 at TBK1 is less than 100 nM; in experiment [1] (setting [2]) it was 100 to 1000 nM; at IKKε, less than 100 nM.

On to `COc1cc(C(=O)N[C@H]2[C@@H]3C[C@H]2CN(C)C3)cnc1-c1cc2nccc(-c3ccc(OC4CCOCC4)c(C#N)c3)c2o1` [Compound 397, 6-{7-[3-Cyano-4-(tetrahydro-pyran-4-yloxy)-phenyl]-furo[3,2-b]pyridin-2-yl}-5-methoxy-N-((1S,5R,6R)-3-methyl-3-aza-bicyclo[3.10.1]hept-6-yl)-nicotinamide], for which the IC50 (on TBK1; in experiment [1] (setting [2]); on IKKε) was less than 100 nM in each case.

Take `COc1cc(C(=O)N[C@@H]2[C@@H]3C[C@H]2CN(C)C3)cnc1-c1cc2nccc(-c3ccc(OC4CCOCC4)c(C#N)c3)c2o1` [Compound 398, 6-{7-[3-Cyano-4-(tetrahydro-pyran-4-yloxy)-phenyl]-furo[3,2-b]pyridin-2-yl}-5-methoxy-N-((1R,5S,6S)-3-methyl-3-aza-bicyclo[3.10.1]hept-6-yl)-nicotinamide]: the IC50 (on TBK1; in experiment [1] (setting [2]); on IKKε) was less than 100 nM each time.
